Holding throughout (assay): growth of human tumour cells (NCI), 48 h
Assay [1] relates to A498 renal.
Assay [2] concerns EKVX NSCLC.
The test system of assay [3] is MALME-3M melanoma.
For assay [4], the system named is MOLT-4 leukemia.
In assay [5] the test system is NCI-H23 lung.
The test system of assay [6] is SF-539 CNS.
For assay [7], the system named is SK-MEL-5 melanoma.
For assay [8], the system named is TK-10 renal.
Assay [9] has as its system UACC-257 melanoma.
Assay [10] concerns UACC-62 melanoma.

These results are taken from PubChem BioAssay (NCI).

The structures appear in SMILES notation. Values joined by “and” are separate entries in the source; they are usually repeats but may differ in a detail not shown here. Equal entries are not always repeated.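 48-hour exposure; five concentrations; linearly interpolated endpoints. Here, GI50 denotes the concentration required for 50% inhibition of growth. The concentration for full growth arrest is given as TGI.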 A value given as a limit tells only on which side of the number the result lay.

On to `CN(C)C/C=C/C(=O)Nc1cc2c(Nc3cccc(Cl)c3F)ncnc2cc1OCCOC(F)F`, for which the GI50 in [1] was 0.423 µM; in assay [3], 1.64 µM; in [4], 1420 nM; in [5] it was 2.07 µM; in [6], 1.5 µM; in [7], 2.46 µM. The figures for the GI50 in assay [8], in [9] and in [10] were under 0.01 µM, 3.59 µM and 1.86 µM, respectively. In addition, the TGI in assay [1] was found to be 2.22 µM; in [2], 6.1 µM; in assay [3], 6.47 µM; in assay [4], 6.18 µM; in assay [5], 10.2 µM; in assay [6], 5.59 µM. For the same molecule, the TGI in [7] worked out at 7.87 µM; in assay [8] it was 1.3 µM; in assay [9] it was 15.5 µM; in [10], 11.1 µM.

Turning to `O=C(NCc1ccccc1)C1C(=O)C(=O)N(Cc2ccccc2)C1=O` (stereo not drawn), the TGI in assay [1], in [2], in assay [3], in assay [4], in [5] and in assay [6] was over 100 µM throughout. Moreover, the TGI in assay [7], in [8], in assay [9] and in assay [10] was over 100 µM each time.

Take `Cc1ccc(NC(=O)CCC(=O)C2Cc3ccccc3C2=O)cc1C` (stereo not drawn): the TGI in assay [1], in assay [2], in [3], in assay [4], in assay [5] and in assay [6] was over 100 µM in each case. Further, the TGI in [7], in assay [8], in assay [9] and in [10] was over 100 µM throughout.

As for `C=C1C(O)C2CC(C)(C)C(=O)C2=C(CC(C)C)C12CC2` (stereo not drawn), the GI50 is over 100 µM in assay [1]; over 100 µM in assay [2]; over 100 µM in assay [3]; 72000 nM in [4]; over 100 µM in [5]; over 100 µM in assay [6]. Also, the GI50 in assay [7], in [8], in [9] and in assay [10] was over 100 µM in each case. Further, the TGI in assay [1], in assay [2], in assay [3], in [4], in [5] and in assay [6] was over 100 µM throughout. Also, the TGI in [7], in assay [8], in assay [9] and in assay [10] was over 100 µM in each case.

For `COc1cc(/C=C/c2ccnc3ccccc23)cc(OC)c1OC`, the GI50 is 1.6 µM in assay [1], 6.27 µM in assay [2], 3.88 µM in assay [3] and 2470 nM in assay [4]. The TGI is 8.91 µM and 5.87 µM in assay [1]; over 100 µM in assay [2]; 42.5 µM and > 100 µM in assay [3]; 13.4 µM and 26.2 µM in [4]; 6.92 µM and 9.64 µM in assay [5]; 11.5 µM and 23.3 µM in [6]. The TGI in [7] is 10.5 µM and 11.5 µM; in [8], 30.6 µM and > 100 µM; in assay [9] it was 91.6 µM and > 100 µM; in assay [10], 30.7 µM and > 100 µM.

With `CCC(C)C(=O)OC1CCC=C2C=CC(C)C(CCC3CC(O)CC(=O)O3)C21` (stereo not drawn), the TGI in [1] was over 66 µM; in [2] it was over 100 µM; in assay [3] it was over 100 µM; in assay [4], over 100 µM; in assay [5] it was over 100 µM; in [6] it was over 29.5 µM. Further, the TGI in [7] was over 100 µM; in assay [8], 98.8 µM; in assay [9], over 100 µM; in assay [10], over 100 µM.

Consider `O=C(O)c1[nH]c2c([N+](=O)[O-])cc([N+](=O)[O-])cc2c1C(=O)O`, for which the TGI in assay [1], in assay [2], in assay [3], in [4], in [5] and in assay [6] was over 100 µM each time. Further, the TGI in assay [7], in assay [8], in assay [9] and in [10] was over 100 µM throughout.

`C=C1C(C(=O)O)C1C(=O)O` (stereo not drawn): the TGI in assay [1], in assay [2], in [3], in [4], in assay [5] and in assay [6] was over 100 µM in each case. For the same molecule, the TGI in assay [7], in assay [8], in assay [9] and in assay [10] was over 100 µM each time.

Take `CCCCC[C@H]1C/C=C2/C(=O)C(Cl)=C[C@@H]2C/C=C\CCCC(=O)O1`: the GI50 in [1] was 0.546 µM; in assay [2], 0.56 µM; in [3], 0.573 µM; in assay [4] it was 117 nM; in [5], 0.493 µM; in assay [6], 0.607 µM. Besides, the GI50 was 0.437 µM in assay [7], 0.612 µM in [8], 0.513 µM in [9] and 0.411 µM in assay [10]. The TGI in assay [1] was determined as 1.46 µM; in assay [2], 1.37 µM; in assay [3], 1.53 µM; in assay [4] it was 2.98 µM; in assay [5] it was 1.18 µM; in [6] it was 1.61 µM. The TGI is 0.812 µM in assay [7], 1.17 µM in assay [8], 1.41 µM in assay [9] and 1 µM in assay [10].

Take `COc1ccc2nc3ccccc3c(NCc3ccccc3)c2c1`: the GI50 in assay [1] was 1.7 µM; in assay [2], 3.03 µM; in assay [3] it was 1.75 µM; in assay [4] it was 2760 nM; in assay [5], 1.95 µM; in assay [6], 1.94 µM. For the same molecule, the GI50 in [7] is 1.76 µM; in assay [8] it was 3.79 µM; in assay [9] it was 2.16 µM; in assay [10], 2.29 µM. Also, the TGI in [1] stood at 3.15 µM; in assay [2], 11.4 µM; in assay [3] it was 3.22 µM; in assay [4] it was 11.2 µM; in assay [5] it was 5.52 µM; in [6], 3.96 µM. Further, the TGI amounted to 3.17 µM in assay [7], 13.1 µM in [8], 4.88 µM in [9] and 6.05 µM in [10].

For `CCc1cccc(NC(=O)c2cc(/C=C/c3ccccc3)[nH]c(=S)n2)c1`, the TGI in [1], in assay [2], in [3], in assay [4], in [5] and in assay [6] was over 100 µM throughout. Moreover, the TGI in assay [7], in assay [8], in assay [9] and in assay [10] was over 100 µM throughout.

Take `N#CC(C#N)=C1CCC2C(=C(C#N)C#N)CCC12` (stereo not drawn): the TGI in assay [1], in assay [2], in assay [3], in assay [4], in [5] and in assay [6] was over 100 µM in each case. The TGI in assay [7], in [8], in assay [9] and in assay [10] was over 100 µM in each case.

Turning to `Nc1cc(N)c2nc(-c3ccccc3)c(NCc3ccc(Cl)c(Cl)c3)nc2c1`, the GI50 is 17.4 µM in [1]; 10.9 µM in assay [2]; 3.41 µM in [3]; 2070 nM in assay [4]; 14.2 µM in [5]; 4.6 µM in [6]. For the same molecule, the GI50 is 3.48 µM in assay [7], 12.8 µM in assay [8], 4.53 µM in assay [9] and 14 µM in [10]. Moreover, the TGI in assay [1] was 32.4 µM; in assay [2] it was 38.7 µM; in assay [3], 13.8 µM; in assay [4] it was over 100 µM; in assay [5], 27.8 µM; in assay [6], 18.8 µM. Moreover, the TGI turned out to be 10.7 µM in assay [7], 30.5 µM in assay [8], 15.7 µM in assay [9] and 30.8 µM in [10].

With `CCN(CC)CCCNc1cc(OC)c(OC)c2cccnc12`, the GI50 in assay [1] was 18.6 µM; in [2] it was 16.4 µM; in assay [3], 12.8 µM; in assay [4], 3270 nM; in assay [5], 1.85 µM; in assay [6] it was 8.01 µM. Further, the GI50 is 5.67 µM in assay [7], 23 µM in [8], 4.55 µM in assay [9] and 3.16 µM in assay [10]. The TGI in assay [1] worked out at 42 µM; in assay [2] it was 54.8 µM; in [3], 31.1 µM; in [4] it was 8.88 µM; in assay [5] it was 26.1 µM; in [6], 23 µM. The TGI worked out at 19.9 µM in [7], 50.1 µM in assay [8], 22.4 µM in assay [9] and 28.7 µM in [10].

On to `c1ccc(/C(=N\Nc2nc3ccccc3s2)c2ccccn2)cc1`, for which the TGI is 70.1 µM in assay [1]; 15.4 µM in assay [2]; 34.4 µM in assay [3]; 4.17 µM in [4]; over 100 µM in assay [5]; over 56.6 µM in [6]. Besides, the TGI in assay [7] was 7.91 µM; in assay [8], 37.5 µM; in [9], over 25.9 µM; in assay [10], 27.5 µM.

Take `O=C(OCc1ccccc1)n1cccc1`: the TGI in assay [1], in assay [2], in assay [3], in assay [4], in [5] and in assay [6] was over 100 µM in each case. Further, the TGI in [7], in assay [8], in assay [9] and in assay [10] was over 100 µM throughout.

Turning to `Cc1cc(OCc2nn(CN3CCN(C)CC3)c(=S)n2/N=C/c2ccc(F)cc2)ccc1Cl`, the GI50 in assay [1] was 16.8 µM; in assay [2] it was 20.4 µM; in [3], 22.8 µM; in assay [4] it was 14700 nM; in assay [5], 16.9 µM; in [6] it was 19.3 µM. Moreover, the GI50 was 16.7 µM in assay [7], 14.6 µM in assay [8], 19.2 µM in assay [9] and 17.4 µM in [10]. In addition, the TGI amounted to 31.3 µM in assay [1]; 43 µM in assay [2]; 43.4 µM in assay [3]; 34.9 µM in assay [4]; 31.1 µM in [5]; 40.1 µM in assay [6]. For the same molecule, the TGI in assay [7] is 30.6 µM; in assay [8], 33.7 µM; in assay [9], 36.7 µM; in assay [10], 31.6 µM.

On to `C(=C\c1ccc(OCC2CO2)cc1)/C1=NCOC1` (stereo not drawn), for which the GI50 was 21.9 µM in assay [1]; 19.1 µM in [2]; 19.9 µM in assay [3]; 3240 nM in [4]; 10.7 µM in assay [5]; 9.48 µM in assay [6]. The GI50 is 12.6 µM in assay [7], 16.2 µM in assay [8], 6.15 µM in [9] and 12.2 µM in assay [10]. Moreover, the TGI was determined as 43.2 µM in assay [1]; 58.4 µM in assay [2]; 58.7 µM in [3]; 16.8 µM in assay [4]; 40.2 µM in assay [5]; 25.8 µM in assay [6]. Moreover, the TGI in assay [7] is 26.6 µM; in assay [8] it was 39.2 µM; in assay [9], 26.6 µM; in assay [10] it was 26.5 µM.

Consider `CCCCNCCCCCNc1cc(OC)cc2cccnc12`, for which the GI50 was 16.2 µM in assay [1]; 29.6 µM in assay [2]; 18 µM in [3]; 18000 nM in [4]; 15.9 µM in [5]; 18.3 µM in [6]. Further, the GI50 in [7] is 12.6 µM; in assay [8], 23.4 µM; in assay [9], 16.1 µM; in assay [10], 19.9 µM. For the same molecule, the TGI in assay [1] is 38 µM; in assay [2], 99.2 µM; in assay [3] it was 42.9 µM; in [4], 41.1 µM; in [5] it was 31.7 µM; in [6] it was 34 µM. The TGI in assay [7] stood at 27.6 µM; in assay [8], 44.5 µM; in [9] it was 32.2 µM; in [10], 40.3 µM.
